Drawing on paper PMC7180718, “Synthesis, Docking Studies and Biological Activity of New Benzimidazole- Triazolothiadiazine Derivatives as Aromatase Inhibitor” (Molecules, 2020), this text covers IC50 and melting point for 16 compounds.

One may read the IC50 as the concentration at which inhibition is half-maximal. One may read the melting point as the temperature, or range, at which the solid turns liquid.

Structures are written as SMILES. Like-named read-outs stand apart in the source and are kept apart here.

In one series the test system is NIH3T3 cells. In words: MTT cytotoxicity assay, healthy NIH3T3 cells. Type of series: cell-based. As to the method: (§1) The newly synthesized compounds were evaluated for their in vitro anticancer potential against MCF-7 breast cancer cell lines by MTT assay using cisplatin as a reference standard. The 50% inhibitory concentration (IC50) values were determined for these compounds. In addition, the cytotoxic activities of compounds 5c, 5e, 5k, and 5m were assessed against healthy NIH3T3 [25] cells, in order to express the selectivity toward carcinogenic cells. The IC50 values of test compounds were determined as the mean IC50 of 4 independent experiments.
(§2) The anticancer activity of compounds 5a–5p were screened according to the MTT assays. The MTT assays were performed as previously described. Cisplatin was used as the reference drug for the MCF7 cell line in the MTT assays.

Series [1] relates to MCF-7 breast cancer cell line. In words: MTT cytotoxicity assay, MCF-7. In kind it is cell-based, human. The method, then:
as §1, §2
For orientation: Tetrazolium dyes change colour on reduction, which living cells bring about.

Series [2] addresses T1, recombinant human aromatase (Homo sapiens, UniProt P11511).
T1 construct: purchased Bio Vision
T1 sequence (P11511 1-503): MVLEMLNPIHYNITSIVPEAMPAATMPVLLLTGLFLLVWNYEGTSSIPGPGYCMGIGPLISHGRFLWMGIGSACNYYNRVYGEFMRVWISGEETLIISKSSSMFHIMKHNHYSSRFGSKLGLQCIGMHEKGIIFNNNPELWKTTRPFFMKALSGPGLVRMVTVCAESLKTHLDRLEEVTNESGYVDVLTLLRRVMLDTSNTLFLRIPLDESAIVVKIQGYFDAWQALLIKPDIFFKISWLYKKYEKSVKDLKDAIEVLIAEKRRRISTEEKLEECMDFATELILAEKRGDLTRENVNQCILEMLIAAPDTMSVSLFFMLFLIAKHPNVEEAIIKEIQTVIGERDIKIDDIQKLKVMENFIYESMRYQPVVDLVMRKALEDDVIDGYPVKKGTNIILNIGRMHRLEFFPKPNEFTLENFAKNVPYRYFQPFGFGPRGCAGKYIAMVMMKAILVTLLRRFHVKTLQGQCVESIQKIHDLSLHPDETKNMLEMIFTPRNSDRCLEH
In words: Fluorometric aromatase (CYP19A) inhibitor screening kit (Bio Vision). In kind it is biochemical. Conditions: read-out: IC50 Aromatase Inhibition.

Where [3] appears, read: fluorometric kit, letrozole as reference.

Consider `N.N.[Cl][Pt][Cl]` [Cisplatin, reference compound], for which the IC50 with NIH3T3 cells (n = 4) was at least 1000 µM; in series [1] (n = 4), 0.02 ± 0.009 µM.
Regarding `c1ccc(C2=Nn3c(nnc3-c3ccc(-c4nc5ccccc5[nH]4)cc3)SC2)cc1` [Compound 5a, 3-(4-(1H-benzo[d]imidazol-2-yl)phenyl)-6-phenyl-7H-[1,2,4]triazole[3,4-b][1,3,4] thiadiazine], half-maximal inhibition in series [1] (n = 4) (IC50) required 0.142 ± 0.007 µM.
Take `Fc1ccc(C2=Nn3c(nnc3-c3ccc(-c4nc5ccccc5[nH]4)cc3)SC2)cc1` [Compound 5c, 3-(4-(1H-benzo[d]imidazol-2-yl)phenyl)-6-(4-fluorophenyl)-7H-[1,2,4]triazole[3,4-b][1,3,4] thiadiazine]: the 50% inhibitory concentration (IC50) amounted to 1.72 ± 0.042 µM in series [2] (setting [3]), 81.8 ± 2.4 µM with NIH3T3 cells (n = 4) and 0.119 ± 0.005 µM in series [1] (n = 4).
Consider `Cc1ccc(C2=Nn3c(nnc3-c3ccc(-c4nc5ccccc5[nH]4)cc3)SC2)cc1` [Compound 5d, 3-(4-(1H-benzo[d]imidazol-2-yl)phenyl)-6-(4-methylphenyl)-7H-[1,2,4]triazole[3,4-b][1,3,4] thiadiazine], for which the 50% inhibitory concentration (IC50) in series [1] (n = 4) was determined as 0.194 ± 0.006 µM.
`N#Cc1ccc(C2=Nn3c(nnc3-c3ccc(-c4nc5ccccc5[nH]4)cc3)SC2)cc1` [Compound 5e, 3-(4-(1H-benzo[d]imidazol-2-yl)phenyl)-6-(4-cyanophenyl)-7H-[1,2,4]triazole[3,4-b][1,3,4] thiadiazine] gave a melting point of 259.3 to 263.1 °C. The IC50 in series [2] was 0.032 ± 0.001 µM. The same compound yielded a half-inhibitory concentration (IC50) in the series with NIH3T3 cells (Mus musculus, NIH3T3, n = 4) of at least 1000 µM. Also, the half-inhibitory concentration (IC50) in series [1] (Homo sapiens, MCF7, n = 4) is 0.016 ± 0.001 µM.
Turning to `Brc1ccc(C2=Nn3c(nnc3-c3ccc(-c4nc5ccccc5[nH]4)cc3)SC2)cc1` [Compound 5f, 3-(4-(1H-benzo[d]imidazol-2-yl)phenyl)-6-(4-bromophenyl)-7H-[1,2,4]triazole[3,4-b][1,3,4] thiadiazine], in series [1] (n = 4), the IC50 was 0.318 ± 0.019 µM.
`Fc1ccc(C2=Nn3c(nnc3-c3ccc(-c4nc5ccccc5[nH]4)cc3)SC2)c(F)c1` [Compound 5g, 3-(4-(1H-benzo[d]imidazol-2-yl)phenyl)-6-(2,4-difluorohenyl)-7H-[1,2,4]triazole [3,4-b][1,3,4] thiadiazine] had an IC50 in series [1] (n = 4) of 0.245 ± 0.004 µM.
For the compound `Clc1ccc(C2=Nn3c(nnc3-c3ccc(-c4nc5ccccc5[nH]4)cc3)SC2)c(Cl)c1` [Compound 5h, 3-(4-(1H-benzo[d]imidazol-2-yl)phenyl)-6-(2,4-dichlorophenyl)-7H-[1,2,4]triazole[3,4-b] [1,3,4] thiadiazine], in series [1] (n = 4), the 50% inhibitory concentration (IC50) turned out to be 0.342 ± 0.017 µM.
`Clc1ccc2[nH]c(-c3ccc(-c4nnc5n4N=C(c4ccccc4)CS5)cc3)nc2c1` [Compound 5i, 3-(4-(5-chloro-1H-benzo[d]imidazol-2-yl)phenyl)-6-phenyl-7H-[1,2,4]triazole[3,4-b][1,3,4] thiadiazine] gave an IC50 in series [1] (n = 4) of 0.205 ± 0.005 µM.
On the same count and under the same terms, the figure for `Clc1ccc(C2=Nn3c(nnc3-c3ccc(-c4nc5cc(Cl)ccc5[nH]4)cc3)SC2)cc1` [Compound 5j, 3-(4-(5-chloro-1H-benzo[d]imidazol-2-yl)phenyl)-6-(4-chlorophenyl)-7H-[1,2,4]triazole [3,4-b][1,3,4] thiadiazine] is 0.258 ± 0.011 µM.
Regarding `Fc1ccc(C2=Nn3c(nnc3-c3ccc(-c4nc5cc(Cl)ccc5[nH]4)cc3)SC2)cc1` [Compound 5k, 3-(4-(5-chloro-1H-benzo[d]imidazol-2-yl)phenyl)-6-(4-fluorophenyl)-7H-[1,2,4]triazole [3,4-b][1,3,4] thiadiazine], the IC50 in series [2] (setting [3]) came out at 2.28 ± 0.106 µM; in the series with NIH3T3 cells (n = 4) it was 77.6 ± 2.1 µM; in series [1] (n = 4), 0.11 ± 0.005 µM.
Take `Cc1ccc(C2=Nn3c(nnc3-c3ccc(-c4nc5cc(Cl)ccc5[nH]4)cc3)SC2)cc1` [Compound 5l, 3-(4-(5-chloro-1H-benzo[d]imidazol-2-yl)phenyl)-6-(4-methylphenyl)-7H-[1,2,4]triazole [3,4-b][1,3,4] thiadiazine]: in series [1] (n = 4), the IC50 stood at 0.352 ± 0.019 µM.
In the case of `N#Cc1ccc(C2=Nn3c(nnc3-c3ccc(-c4nc5cc(Cl)ccc5[nH]4)cc3)SC2)cc1` [Compound 5m, 3-(4-(5-chloro-1H-benzo[d]imidazol-2-yl)phenyl)-6-(4-cyanophenyl)-7H-[1,2,4]triazole [3,4-b][1,3,4] thiadiazine], the figures for the 50% inhibitory concentration (IC50) (in series [2] (setting [3]); in the series on NIH3T3 cells (n = 4); in series [1] (n = 4)) were 1.56 ± 0.064 µM, at least 1000 µM and 0.018 ± 0.001 µM, respectively.
`Clc1ccc2[nH]c(-c3ccc(-c4nnc5n4N=C(c4ccc(Br)cc4)CS5)cc3)nc2c1` [Compound 5n, 3-(4-(5-chloro-1H-benzo[d]imidazol-2-yl)phenyl)-6-(4-bromophenyl)-7H-[1,2,4]triazole [3,4-b][1,3,4] thiadiazine] displayed an IC50 in series [1] (n = 4) of 0.264 ± 0.011 µM.
On to `Fc1ccc(C2=Nn3c(nnc3-c3ccc(-c4nc5cc(Cl)ccc5[nH]4)cc3)SC2)c(F)c1` [Compound 5o, 3-(4-(5-chloro-1H-benzo[d]imidazol-2-yl)phenyl)-6-(2,4-difluorohenyl)-7H-[1,2,4]triazole [3,4-b][1,3,4] thiadiazine], for which, in series [1] (n = 4), the IC50 stood at 0.373 ± 0.011 µM.
As for `Clc1ccc(C2=Nn3c(nnc3-c3ccc(-c4nc5cc(Cl)ccc5[nH]4)cc3)SC2)c(Cl)c1` [Compound 5p, 3-(4-(5-chloro-1H-benzo[d]imidazol-2-yl)phenyl)-6-(2,4-dichlorophenyl)-7H-[1,2,4]triazole [3,4-b][1,3,4] thiadiazine], inhibition in series [1] (n = 4) was half-maximal at 0.147 ± 0.001 µM (IC50).
